Source: US11752139B2, “Therapeutic combinations of orally administered irinotecan and a p-gp inhibitor for the treatment of cancer” (priority 2018, dated 2023)
Several values for one entry are separate records, joined by “and”; a condition that tells them apart may be missing. Equal values may be shown once. Read-outs that look alike come from different tables or passages of the source.

What was measured:
[1] = Study 2: pharmacokinetics of oral irinotecan and M1, 5-20 mg/m^2 per day for 10 days during a 21 day cycle; settings: for AUC24 / Cmax: mean
[2] = Simple Emax model of exposure (AUCinf, Cmax) versus dose
[3] = for AUC24 h / Cmax / Tmax: N = 3
Procedure: A phase 1 dose escalation study was performed to determine the MTD and DLT of orally administered irinotecan in combination with 15 mg (on day 1 of a 21-day cycle) of HM30181A. The study was performed on cohorts of 3-6 subjects with advanced malignancies. Subjects had Hb (hemoglobin count) 9 gm/dL, ANC (absolute neutrophil count) 1.5×10^9/L, and platelets 100×10^9/L, as well as adequate hepatic and renal function, and ECOG (Eastern Cooperative Oncology Group Performance Status) 0-1, and were not homozygous for UGT1A1*28.

[4] = Study 1: pharmacokinetics of oral irinotecan and M1, 5-30 mg/m^2 per day for five days during a 21 day cycle; settings: for AUC24 / Cmax: mean
[5] = IV dose of 340 mg/m^2; reference line of FIG. 5A; cited from earlier work
[6] = dose 240 mg/m^2 oral irinotecan + 15 mg HM30181A
[7] = dose 280 mg/m^2 oral irinotecan + 15 mg HM30181A
[8] = dose 320 mg/m^2 oral irinotecan + 15 mg HM30181A
[9] = Tablet, dose 120 (mg), Mean (CV %), N 3, plasma
[10] = Tablet, dose 160 (mg), Mean (CV %), N 3, plasma
[11] = Tablet, dose 200 (mg), Mean (CV %), N 3, plasma
[12] = Tablet, dose 240 (mg), Mean (CV %), N 3, plasma
[13] = Tablet, dose 280 (mg), Mean (CV %), N 3, plasma
[14] = Tablet, dose 320 (mg), Mean (CV %), N 3, plasma
[15] = single oral dose 240 mg/m^2, individual subjects 1-3, plasma
[16] = single oral dose 280 mg/m^2, individual subjects 4-6, plasma
[17] = single oral dose 320 mg/m^2, individual subjects 7-9, plasma

SMILES: CCc1c2c(nc3ccc(O)cc13)-c1cc3c(c(=O)n1C2)COC(=O)[C@]3(O)CC [Compound M1]
- pharmacokinetics versus dose ([1]; 5-20 mg/m^2 per day for 10 days during a 21 day cycle): increased proportionally with dose
- AUC24 ([1]; Day 1, dose group 5 mg/m^2): 41.40 ng·h/mL
- Cmax ([1]; Day 1, dose group 5 mg/m^2): 7.08 ng/mL
- AUC24 ([1]; Day 1, dose group 10 mg/m^2): 43.34 ng·h/mL
- Cmax ([1]; Day 1, dose group 10 mg/m^2): 5.04 ng/mL
- AUC24 ([1]; Day 1, dose group 15 mg/m^2): 85.61 ng·h/mL
- Cmax ([1]; Day 1, dose group 15 mg/m^2): 10.19 ng/mL
- AUC24 ([1]; Day 1, dose group 20 mg/m^2): 54.44 ng·h/mL
- Cmax ([1]; Day 1, dose group 20 mg/m^2): 4.15 ng/mL
- AUC24 ([1]; Day 12, dose group 5 mg/m^2): 42.53 ng·h/mL
- Cmax ([1]; Day 12, dose group 5 mg/m^2): 6.10 ng/mL
- AUC24 ([1]; Day 12, dose group 10 mg/m^2): 38.17 ng·h/mL
- Cmax ([1]; Day 12, dose group 10 mg/m^2): 4.04 ng/mL
- AUC24 ([1]; Day 12, dose group 15 mg/m^2): 144.14 ng·h/mL
- Cmax ([1]; Day 12, dose group 15 mg/m^2): 18.00 ng/mL
- AUC24 ([1]; Day 12, dose group 20 mg/m^2): 71.97 ng·h/mL
- Cmax ([1]; Day 12, dose group 20 mg/m^2): 7.63 ng/mL
- Predicted AUCinf ([2]; dose 200 mg/m^2): 423
- Predicted Cmax ([2]; dose 200 mg/m^2): 29.2
- Predicted AUCinf ([2]; dose 240 mg/m^2): 464
- Predicted Cmax ([2]; dose 240 mg/m^2): 31.9
- Predicted AUCinf ([2]; dose 280 mg/m^2): 499
- Predicted Cmax ([2]; dose 280 mg/m^2): 34.1
- Predicted AUCinf ([2]; dose 320 mg/m^2): 528
- Predicted Cmax ([2]; dose 320 mg/m^2): 38.8
- AUC24 h [3, 6]: 264 ng·h/mL
- Cmax [3, 6]: 28.3 ng/mL
- Tmax [3, 6]: 3.0 h
- AUC24 h [3, 7]: 293 ng·h/mL
- Cmax [3, 7]: 37.6 ng/mL
- AUC24 h [3, 8]: 300 ng·h/mL
- Cmax [3, 8]: 38.5 ng/mL
- Tmax [3, 8]: 2.0 h
- concentrations of SN-38 reached ([3]; oral administration of HM30181A in combination with irinotecan tablets): pharmacologically active concentrations
- AUC0-inf (Tablet, dose 120 (mg), Mean (CV %), N 2, plasma): 274 (18.3) ng*hr/mL
- AUC0-24 [9]: 168 (32.9) ng*hr/mL
- Cmax [9]: 23.1 (58.4) ng/mL
- Tlast [9]: 56.0 h
- Tmax* (Tablet, dose 120 (mg), N 3, plasma): 3.00 h
- AUC0-24 [10]: 156 (22.6) ng*hr/mL
- AUC0-inf [10]: 235 (13.4) ng*hr/mL
- Cmax [10]: 25.0 (58.1) ng/mL
- Tlast [10]: 48.0 (21.7) hr
- Tmax* (Tablet, dose 160 (mg), N 3, plasma): 3.00 h
- AUC0-24 [11]: 185 (66.3) ng*hr/mL
- AUC0-inf [11]: 468 (90.0) ng*hr/mL
- Cmax [11]: 23.0 (102) ng/mL
- Tlast [11]: 88.0 (83.3) hr
- Tmax* (Tablet, dose 200 (mg), N 3, plasma): 3.00 h
- AUC0-24 [12]: 264 (66.4) ng*hr/mL
- Cmax [12]: 28.3 (67.3) ng/mL
- Tlast [12]: 96.0 (66.1) hr
- AUC0-inf (Tablet, dose 240 (mg), N 1, plasma): 224 ng·h/mL
- Tmax* (Tablet, dose 240 (mg), N 3, plasma): 3.00 h
- AUC0-24 [13]: 293 (60.0) ng*hr/mL
- AUC0-inf [13]: 468 (67.3) ng*hr/mL
- Cmax [13]: 37.6 (42.4) ng/mL
- Tlast [13]: 72.0 (0) hr
- Tmax* (Tablet, dose 280 (mg), N 3, plasma): 1.5 h
- AUC0-24 [14]: 300 (42.3) ng*hr/mL
- Cmax [14]: 38.5 (58.7) ng/mL
- Tlast [14]: 72.0 (0) hr
- AUC0-inf (Tablet, dose 320 (mg), N 1, plasma): 349 ng·h/mL
- Tmax* (Tablet, dose 320 (mg), N 3, plasma): 2.00 h
- Observed Mean (Cmax) (dose 200 mg/m^2): 23 ng/mL
- Observed Mean AUCinf (dose 200 mg/m^2): 468 ng·h/mL
- Observed Mean (Cmax) (dose 240 mg/m^2): 28.3 ng/mL
- Observed Mean AUCinf (dose 240 mg/m^2): 224 ng·h/mL
- Observed Mean (Cmax) (dose 280 mg/m^2): 37.6 ng/mL
- Observed Mean AUCinf (dose 280 mg/m^2): 468 ng·h/mL
- Observed Mean (Cmax) (dose 320 mg/m^2): 38.7 ng/mL
- Observed Mean AUCinf (dose 320 mg/m^2): 349 ng·h/mL
- subjects with M1 exposures (AUC24) comparable between oral irinotecan and IV irinotecan (dose level of 200 mg/m^2 and above): 4 of 9
- M1 Cmax compared with IV irinotecan (oral solution administration): within the range of 125 mg/m^2 dosed IV irinotecan
- early enterohepatic recycling (EHR) in plasma concentration profile, time (plasma): 5.5 h
- possible enterohepatic recycling (EHR) in plasma concentration profile, time (plasma): 50 h
- AUC24 [15]: 133 ng·h/mL and 463 ng·h/mL and 195 ng·h/mL
- AUCinf [15]: 224 ng·h/mL
- AUClast [15]: 185 ng·h/mL and 636 ng·h/mL and 376 ng·h/mL
- Cmax [15]: 17.1 ng/mL and 50.3 ng/mL and 17.5 ng/mL
- Tlast [15]: 48 h and 168 h and 72 h
- Tmax [15]: 3 h
- AUC24 [16]: 497 ng·h/mL and 190 ng·h/mL and 194 ng·h/mL
- AUCinf [16]: 831 ng·h/mL and 273 ng·h/mL and 300 ng·h/mL
- AUClast [16]: 783 ng·h/mL and 256 ng·h/mL and 282 ng·h/mL
- Cmax [16]: 55.4 ng/mL and 33.0 ng/mL and 24.5 ng/mL
- Tlast [16]: 72 h
- Tmax [16]: 1 h and 1.5 h and 3 h
- AUC24 [17]: 212 ng·h/mL and 445 ng·h/mL and 242 ng·h/mL
- AUCinf [17]: 349 ng·h/mL
- AUClast [17]: 322 ng·h/mL and 713 ng·h/mL and 410 ng·h/mL
- Cmax [17]: 28.1 ng/mL and 64.8 ng/mL and 23.2 ng/mL
- Tlast [17]: 72 h
- Tmax [17]: 1.5 h and 2 h and 3 h
- M1 Cmax compared with IV irinotecan (tablet formulation, FIG. 5B): in a range of that observed with IV irinotecan dosage of 340 mg/m^2
- pharmacokinetics versus dose ([4]; 5-30 mg/m^2 per day for five days during a 21 day cycle): increased proportionally with dose
- AUC24 ([4]; Day 1, dose group 5 mg/m^2): 49.83 ng·h/mL
- Cmax ([4]; Day 1, dose group 5 mg/m^2): 6.07 ng/mL
- AUC24 ([4]; Day 1, dose group 10 mg/m^2): 46.04 ng·h/mL
- Cmax ([4]; Day 1, dose group 10 mg/m^2): 7.84 ng/mL
- AUC24 ([4]; Day 1, dose group 15 mg/m^2): 50.29 ng·h/mL
- Cmax ([4]; Day 1, dose group 15 mg/m^2): 5.33 ng/mL
- AUC24 ([4]; Day 1, dose group 20 mg/m^2): 63.56 ng·h/mL
- Cmax ([4]; Day 1, dose group 20 mg/m^2): 8.92 ng/mL
- AUC24 ([4]; Day 1, dose group 25 mg/m^2): 143.97 ng·h/mL
- Cmax ([4]; Day 1, dose group 25 mg/m^2): 17.10 ng/mL
- AUC24 ([4]; Day 1, dose group 30 mg/m^2): 83.64 ng·h/mL
- Cmax ([4]; Day 1, dose group 30 mg/m^2): 7.31 ng/mL
- AUC24 ([4]; Day 5, dose group 5 mg/m^2): 68.61 ng·h/mL
- Cmax ([4]; Day 5, dose group 5 mg/m^2): 5.84 ng/mL
- AUC24 ([4]; Day 5, dose group 10 mg/m^2): 51.40 ng·h/mL
- Cmax ([4]; Day 5, dose group 10 mg/m^2): 6.15 ng/mL
- AUC24 ([4]; Day 5, dose group 15 mg/m^2): 118.29 ng·h/mL
- Cmax ([4]; Day 5, dose group 15 mg/m^2): 11.14 ng/mL
- AUC24 ([4]; Day 5, dose group 20 mg/m^2): 119.38 ng·h/mL
- Cmax ([4]; Day 5, dose group 20 mg/m^2): 11.73 ng/mL
- AUC24 ([4]; Day 5, dose group 25 mg/m^2): 178.58 ng·h/mL
- Cmax ([4]; Day 5, dose group 25 mg/m^2): 14.93 ng/mL
- AUC24 ([4]; Day 5, dose group 30 mg/m^2): 308.27 ng·h/mL
- Cmax ([4]; Day 5, dose group 30 mg/m^2): 13.44 ng/mL

SMILES: CCc1c2c(nc3ccc(OC(=O)N4CCC(N5CCCCC5)CC4)cc13)-c1cc3c(c(=O)n1C2)COC(=O)[C@]3(O)CC [IV dosed irinotecan]
- Cmax [5]: 3392 ng/mL
